Laboratory results reported in paper PMC9866191, “Novel 9-Benzylaminoacridine Derivatives as Dual Inhibitors of Phosphodiesterase 5 and Topoisomerase II for the Treatment of Colon Cancer” (Molecules, 2023).
Entries after “also recorded” stand apart in the source; their conditions may differ.

Assays:
HCT-116 cells [1] = assay: Cell cycle analysis (PI, flow cytometry); type: cell-based, human; conditions: 10 µM, 24 h, PI staining
Description: To analyze cell cycle changes, cells permeated at 1 × 10^6 × cells/mL were trypsinized and diluted and then fixed in 70% ethanol at 4 °C. Cell cycle arrest in HCT-116 cells following compound exposure was accomplished using propidium iodide (Sigma-Aldrich, St. Louis, MI, USA). The markers were then assessed using a FACS-Caliburflow cytometer (Beckman Coulter, Taipei, Taiwan) and analyzed using WinMDI software. […]
(§1) Figure 3 Apoptosis induction and cell cycle effects of compounds in HCT-116 cells. (A) The apoptotic population of HCT-116 cells was analyzed using flow cytometry after treatment with 10 µM of the test compound for 24 h followed by Annexin V/propidium iodide (PI) staining. (B) After treatment with compound concentrations of 10 µM for 24 h, cells were fixed, stained with propidium iodide (PI), and analyzed for cell cycle distribution. Results are expressed as the means ± SD from three independent experiments (* p < 0.05 and ** p < 0.01 *** p < 0.001, control versus compound).

HCT-116 cells [2] = assay: Annexin-V/PI apoptosis assay; type: cell-based, human; conditions: 10 µM, 24 h
Description: For the same set of compounds, the apoptosis-inducing effects in HCT-116 cells were assessed using Annexin-V/PI double staining at 10 µM (Figure 3).
The number of apoptotic/necrotic cells was analyzed using flow cytometry following the manufacturer’s protocol. Markers were assessed using a FACS-Caliburflow cytometer (Beckman Coulter, Taipei, Taiwan) and analyzed using WinMDI 2.8 software.
as §1

human DNA Topo II = target: T1, human DNA Topo II (Homo sapiens, UniProt P11388); assay: Topo II-mediated relaxation of supercoiled pHOT1 plasmid DNA; type: biochemical; conditions: for DNA band pattern in Topo II relaxation assay: at 1 and 5 µM doses, similar to doxorubicin
T1 construct: purchased Topogen, Columbus, OH, USA
T1 sequence (P11388 whole entry): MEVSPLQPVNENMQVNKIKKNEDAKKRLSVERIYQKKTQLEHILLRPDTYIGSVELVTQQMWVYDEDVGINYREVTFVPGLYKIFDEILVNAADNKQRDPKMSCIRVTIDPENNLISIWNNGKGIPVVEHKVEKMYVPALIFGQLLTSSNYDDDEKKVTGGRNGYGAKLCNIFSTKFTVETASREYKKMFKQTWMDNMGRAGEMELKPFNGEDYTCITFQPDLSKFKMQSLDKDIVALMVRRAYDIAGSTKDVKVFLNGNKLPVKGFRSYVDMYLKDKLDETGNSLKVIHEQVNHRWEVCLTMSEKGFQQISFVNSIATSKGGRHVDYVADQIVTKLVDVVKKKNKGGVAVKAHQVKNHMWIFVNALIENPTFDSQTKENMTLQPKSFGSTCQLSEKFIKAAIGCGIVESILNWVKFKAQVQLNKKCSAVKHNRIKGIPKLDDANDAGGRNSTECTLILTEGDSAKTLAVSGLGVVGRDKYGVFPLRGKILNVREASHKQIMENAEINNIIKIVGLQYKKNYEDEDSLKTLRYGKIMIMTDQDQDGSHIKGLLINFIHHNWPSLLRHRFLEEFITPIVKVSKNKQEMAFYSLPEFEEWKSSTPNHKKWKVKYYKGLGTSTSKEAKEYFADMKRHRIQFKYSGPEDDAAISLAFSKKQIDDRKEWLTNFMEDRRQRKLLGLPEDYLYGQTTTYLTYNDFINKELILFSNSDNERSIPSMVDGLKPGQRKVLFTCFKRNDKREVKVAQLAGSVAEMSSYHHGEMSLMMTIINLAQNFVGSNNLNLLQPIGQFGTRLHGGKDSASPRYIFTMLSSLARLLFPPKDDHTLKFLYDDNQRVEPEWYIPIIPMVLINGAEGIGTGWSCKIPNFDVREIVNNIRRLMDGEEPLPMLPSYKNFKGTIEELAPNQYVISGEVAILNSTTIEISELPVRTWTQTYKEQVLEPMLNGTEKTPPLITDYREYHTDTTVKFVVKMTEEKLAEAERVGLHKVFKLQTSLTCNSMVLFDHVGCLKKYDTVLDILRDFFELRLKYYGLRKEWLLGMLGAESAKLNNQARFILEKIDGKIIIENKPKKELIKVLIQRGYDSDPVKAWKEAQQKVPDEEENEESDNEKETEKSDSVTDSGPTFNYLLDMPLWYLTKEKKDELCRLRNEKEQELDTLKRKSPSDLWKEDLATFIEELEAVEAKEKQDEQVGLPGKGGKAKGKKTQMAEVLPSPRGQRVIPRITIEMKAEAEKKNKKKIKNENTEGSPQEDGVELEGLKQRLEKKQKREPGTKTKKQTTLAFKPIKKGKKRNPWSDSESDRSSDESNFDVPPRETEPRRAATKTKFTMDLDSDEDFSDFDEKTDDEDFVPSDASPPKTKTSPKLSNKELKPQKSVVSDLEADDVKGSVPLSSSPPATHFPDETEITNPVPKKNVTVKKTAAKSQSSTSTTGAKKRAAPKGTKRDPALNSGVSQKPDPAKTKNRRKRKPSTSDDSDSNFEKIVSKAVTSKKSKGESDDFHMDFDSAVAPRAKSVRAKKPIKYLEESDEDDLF
Description: Consequently, the effects of the synthesized compounds on Topo II activity were evaluated with a cell-free assay using a purified human DNA Topo II-protein-mediated relaxation of the negatively supercoiled pHOT1 plasmid DNA [40]. […] Two Topo II inhibitors (doxorubicin and etoposide) were used as positive controls.
The reaction was terminated by adding 2 μL of 10% SDS, followed by 2.5 μL of proteinase K (50 μg/mL) to digest the bound protein. The system was incubated at 37 °C for 15 min. The DNA product was finally analyzed using electrophoresis on a vertical 1.5% agarose gel at 2 volts/cm in 1 × TAE buffer and photographed using the Eagle Eye II system (Stratagene, La Jolla, CA, USA).
Figure 2 Effects of compounds on topoisomerase II activity. Effects on Topo II-mediated relaxation of supercoiled pHOT1 plasmid DNA in a cell-free system. Positive control: etoposide (10 µM); doxorubicin (5 µM) used as Topo II poison (induction of linear DNA); DNA relaxation: plasmid DNA + topo IIα + solvent control. Nick, nicked DNA; Sc, supercoiled DNA; Lin, linear DNA.

A549/ATCC = assay: NCI-60 one-dose screen; type: cell-based; conditions: Homo sapiens, Non-small cell lung panel, single dose 10^−5 M, read-out: Growth inhibition %
CAKI-1 = assay: NCI-60 one-dose screen; type: cell-based; conditions: Homo sapiens; CAKI-1, Renal Cancer panel; single dose 10^−5 M; read-out: Growth inhibition %
HCT-116 = assay: MTT cell proliferation assay, HCT-116; conditions: for % Inhibition at 10 µM: 72 h MTT, means ± SD; for IC50: read-out: IC50 μM, 72 h MTT, means ± SD, three experiments
Description: In the MTT assay, 96-well culture plates were used. A total of 7 × 10^4 cells per well were seeded, and test materials were added to the cells at various concentrations [47, 48]. Human cancer and non-cancer cell lines were purchased commercially from the American Type Culture Collection (ATCC). After 72 h, the cytotoxicity of the compounds and paclitaxel (as a positive control group) was detected using the MTT method (thiazolyl blue tetrazolium bromide, Sigma-M2128). Absorbance values at 570 and 620 nm (OD = OD570–OD620) were measured using an ELISA reader (Anthos Labtec Instruments, Salzburg, Austria).

SF-268 = assay: NCI-60 one-dose screen; type: cell-based; conditions: Homo sapiens; SF-268, CNS Cancer panel; single dose 10^−5 M; read-out: Growth inhibition %

For `c1coc(CNc2c3ccccc3nc3ccccc23)c1` [Compound 14, Acridin-9-yl-furan-2-ylmethyl-amine], the “effect on cell cycle” value (HCT-116 cells [1]) was “arrested the cell cycle in the S phase”, the induction of apoptosis (HCT-116 cells [2]) was 20%–50% and the “DNA band pattern in Topo II relaxation assay” value (“DNA band pattern” below) (human DNA Topo II) was “larger base pair band than nicked DNA”. The inhibition at 10 µM (A549/ATCC) was 38.1%, the inhibition at 10 µM (CAKI-1) was 59% and the “% Inhibition at 10 µM” value (HCT-116) was 58.83 ± 1.72%. It also gave an IC50 (HCT-116) of 8.41 ± 0.19 µM and an inhibition at 10 µM (SF-268) of 14.3%.

For `COc1ccc(CNc2c3ccccc3nc3ccccc23)cc1OC` [Compound 18, Acridin-9-yl-(3,4-dimethoxybenzyl)-amine], the “effect on cell cycle” value (HCT-116 cells [1]) was “increased the number of cells in the S phase and G2/M phase”, the induction of apoptosis (HCT-116 cells [2]) was 20%–50% and the “DNA band pattern” value (human DNA Topo II) was “larger base pair band than nicked DNA”. The inhibition at 10 µM (A549/ATCC) was 83.7%, the inhibition at 10 µM (CAKI-1) was 89.5% and the inhibition at 10 µM (SF-268) was 60.4%.

With `Fc1cccc(CNc2c3ccccc3nc3ccccc23)c1F` [Compound 20, Acridin-9-yl-(2,3-difluorobenzyl)-amine] the “effect on cell cycle” value (HCT-116 cells [1]) was “cell cycle arrest in the S phase and reduced the percentage of cells in the G2/M phase”, the induction of apoptosis (HCT-116 cells [2]) was 20%–50% and the “DNA band pattern” value (human DNA Topo II) was “larger base pair band than nicked DNA”. The inhibition at 10 µM (A549/ATCC) was 43.3%, the inhibition at 10 µM (CAKI-1) was 54.3% and the “% Inhibition at 10 µM” value (HCT-116) was 58.56 ± 3.21%. The IC50 (HCT-116) was 4.96 ± 0.02 µM and the inhibition at 10 µM (SF-268) was 16.6%.

In the case of `Fc1ccc(CNc2c3ccccc3nc3ccccc23)c(F)c1` [Compound 21, Acridin-9-yl-(2,4-difluorobenzyl)-amine], the “effect on cell cycle” value (HCT-116 cells [1]) is reported as “cell cycle arrest in the G2/M phase”, the induction of apoptosis (HCT-116 cells [2]) is reported as “less than 20%” and the “DNA band pattern” value (human DNA Topo II) is reported as “larger base pair band than nicked DNA”. For the same compound, the inhibition at 10 µM (A549/ATCC) was 59.9%, the inhibition at 10 µM (CAKI-1) was 64.7% and the “% Inhibition at 10 µM” value (HCT-116) was 67.37 ± 0.67%. The IC50 (HCT-116) was 3.95 ± 0.82 µM and the inhibition at 10 µM (SF-268) was 31.4%.

For `Fc1ccc(CNc2c3ccccc3nc3ccccc23)cc1F` [Compound 22, Acridin-9-yl-(3,4-difluorobenzyl)-amine], the “effect on cell cycle” value (HCT-116 cells [1]) was “cell cycle arrest in the G2/M phase”, the induction of apoptosis (HCT-116 cells [2]) was “less than 20%” and the “DNA band pattern” value (human DNA Topo II) was “larger base pair band than nicked DNA”. For the same compound, the inhibition at 10 µM (A549/ATCC) was 70.9%, the inhibition at 10 µM (CAKI-1) was 74.7% and the “% Inhibition at 10 µM” value (HCT-116) was 56.92 ± 0.61%. The IC50 (HCT-116) was 6.99 ± 0.17 µM and the inhibition at 10 µM (SF-268) was 42.8%.

For `c1csc(-c2ccc(CNc3c4ccccc4nc4ccccc34)cc2)c1` [Compound 24, Acridin-9-yl-(4-thiophen-2-yl-benzyl)-amine], the “effect on cell cycle” value (HCT-116 cells [1]) was “arrested the cell cycle in the S phase”, the induction of apoptosis (HCT-116 cells [2]) was 20%–50% and the “DNA band pattern” value (human DNA Topo II) was “larger base pair band than nicked DNA”. The inhibition at 10 µM (A549/ATCC) was 73.3%, the inhibition at 10 µM (CAKI-1) was 64.5% and the “% Inhibition at 10 µM” value (HCT-116) was 57.14 ± 3.10%. The IC50 (HCT-116) was 7 ± 0.56 µM and the inhibition at 10 µM (SF-268) was 37.1%.

For `COc1ccc2nc3ccccc3c(NCc3ccccc3)c2c1` [Compound 25, Benzyl-(2-methoxyacridin-9-yl)-amine], the “effect on cell cycle” value (HCT-116 cells [1]) was “cell cycle arrest in the G2/M phase; also recorded: increased the number of cells in the S phase and G2/M phase”, the induction of apoptosis (HCT-116 cells [2]) was 20%–50% and the “DNA band pattern” value (human DNA Topo II) was “larger base pair band than nicked DNA”. The inhibition at 10 µM (A549/ATCC) was 81.8%, the inhibition at 10 µM (CAKI-1) was 74.2% and the “% Inhibition at 10 µM” value (HCT-116) was 59.62 ± 2.66%. For the same compound, the IC50 (HCT-116) was 7.43 ± 0.77 µM and the inhibition at 10 µM (SF-268) was 55.8%.

With `COc1ccc2nc3ccccc3c(NCc3ccc(F)cc3)c2c1` [Compound 28, (4-Fluorobenzyl)-(2-methoxyacridin-9-yl)-amine] the “effect on cell cycle” value (HCT-116 cells [1]) was “increased the number of cells in the S phase and G2/M phase”, the induction of apoptosis (HCT-116 cells [2]) was “less than 20%” and the “concentration at which Topo II inhibition (increase of supercoiled DNA) is shown” value (human DNA Topo II; cell-free relaxation assay, gel) was 1 µM. The inhibition at 10 µM (A549/ATCC) was 80.3%, the inhibition at 10 µM (CAKI-1) was 92.8% and the “% Inhibition at 10 µM” value (HCT-116) was 75.53 ± 2.52%. For the same compound, the IC50 (HCT-116) was 2.51 ± 0.53 µM and the inhibition at 10 µM (SF-268) was 65.4%.

With `Cc1ccc2nc3ccccc3c(NCc3ccccc3)c2c1` [Compound 30, Benzyl-(2-methylacridin-9-yl)-amine] the “effect on cell cycle” value (HCT-116 cells [1]) was “cell cycle arrest in the G2/M phase”, the induction of apoptosis (HCT-116 cells [2]) was “less than 20%” and the “DNA band pattern” value (human DNA Topo II) was “larger base pair band than nicked DNA”. The inhibition at 10 µM (A549/ATCC) was 59.8%, the inhibition at 10 µM (CAKI-1) was 64.5% and the “% Inhibition at 10 µM” value (HCT-116) was 68.46 ± 1.55%. For the same compound, the IC50 (HCT-116) was 5.78 ± 0.11 µM and the inhibition at 10 µM (SF-268) was 31%.

In the case of `Cc1ccc2nc3ccccc3c(NCc3ccc(Cl)cc3)c2c1` [Compound 31, (4-Chlorobenzyl)-(2-methyl-acridin-9-yl)-amine], the “effect on cell cycle” value (HCT-116 cells [1]) is reported as “arrested the cell cycle in the S phase”, the induction of apoptosis (HCT-116 cells [2]) is reported as 20%–50% and the “DNA band pattern” value (human DNA Topo II) is reported as “larger base pair band than nicked DNA”. The inhibition at 10 µM (A549/ATCC) was 59.2%, the inhibition at 10 µM (CAKI-1) was 54.3% and the “% Inhibition at 10 µM” value (HCT-116) was 55.53 ± 1.69%. The IC50 (HCT-116) was 7.95 ± 0.65 µM and the inhibition at 10 µM (SF-268) was 20.9%.
